Data set [1] concerns NEAT1. Put plainly: NEAT1 induction under low/chronic or high stress conditions. It counts as cell-based, human. An excerpt: FIGS. 4A-4F. NEAT1 is induced in human and mouse cells exposed to low stress conditions including exposure to the inducer of senescence aurora-kinase inhibitor AZD1152-HQPA (AZD; FIG. 4A), low doses of Rotenone (Rot; FIG. 4B) that promotes oxidative stress, low doses of doxorubicin (Doxo, FIG. 4C) and replicative stress-induced damage (RS; FIG. 4D).
It has been shown that p53 is induced in MEFs during passages as a response to increasing oxidative stress levels generated by culturing of the cells in normoxic conditions. […] This is in line with chronic stress caused by UV radiation.
The same is true for cells that are exposed to high doses of irradiation (FIG. 4F).

In data set [2] the test system is NEAT1. Put plainly: NEAT1 induction by Nutlin3a (RNA-seq, qPCR) in human cell lines. Format: cell-based. The protocol: (§1) FIG. 1 provides evidence that NEAT1 is a direct p53 target gene in the breast cancer cell line MCF-7. RNA-seq and p53 ChIPseq experiments have been carried out in MCF-7 cells following exposure to the MDM2 antagonist Nutlin3a for 24 hours.
(§2) This upregulation is mediated through the recruitment of p53 to the NEAT1 promoter as illustrated by the increase intensity of the p53-ChIP-seq peaks (green in FIG. 1).
Both isoforms are affected, with the effect being stronger for the longer isoform (NEAT1_2).
(§3) To differentiate between the different isoforms of NEAT, the following strategy was used. All qPCRs labeled NEAT1 or NEAT1_1 were done with primers targeting the region of +/−2200 bp. The knock-down probes labeled as such also target the region between 2000 and 3756 bp. The RNA-FISH probeset used is made up of a large set of oligos targeting region 1-3756 bp. The primers and knock-down probes labeled NEAT1_2 (the long transcript) target a region of +/−21300 bp. The RNA-FISH probes (again a set of oligos) target the portion from 3800-11700 bp to avoid detection of shorter isoforms.
In general terms: Real-time PCR tracks product formation cycle by cycle.

The next data set has as its system MCF-7 cells. Briefly: Paraspeckles formation by NEAT1 RNA-FISH in Nutlin3a-treated MCF-7 cells. Format: cell-based, human. To be noted: for Nutlin-induced paraspeckles formation: MCF-7 following Nutlin exposure, gapmer transfection. The method, then:
FIGS. 3A and 3B. […] FIG. 3A: MCF-7 cells were exposed to Nutlin3a (for 24 hours) and paraspeckles formation (red dots) was assessed by FISH-analysis with a NEAT1-specific probe set. Nuclei were counter-stained with DAPI (Blue). FIG. 3B: Quantification of paraspeckles formation in MCF-7 cells exposed to Nutlin3a before (mock) and after transfection of the cells with a control/scramble gapmer (scr) or gapmers targeting the NEAT1 transcripts (gap4 and gap6).
as §3
A similar observation in MCF-7 cells treated with p53 shRNA confirms again that this induction is p53-dependent (data not shown). Thus, p53 stimulates the formation of paraspeckles in these cells.

In data set [3] the test system is NEAT1. Put plainly: NEAT1 induction by Nutlin in mouse embryonic fibroblasts. The settings on record: early passage (P3) MEFs. It counts as cell-based. An excerpt: FIGS. 7A-7F. NEAT1 is required for primary cells immortalization. NEAT1 expression in induced in mouse embryonic fibroblasts (MEFs) upon Nutlin3a exposure (FIG. 7A) and replicative passaging on a 3T3 protocol (FIG. 7B).

Another data set concerns NEAT1 promoter. Briefly: p53 ChIP-seq in MCF-7 cells. To be noted: 24 hours. Format: cell-based, human. The protocol:
as §1, §2

The subject of a further data set is BJ. Put plainly: Paraspeckles formation in immortalized human diploid fibroblast cell line BJ. Format: cell-based. The settings on record: BJ cells, LNA-gapmer transfection.
In data set [4] the test system is NEAT1. Briefly: NEAT1 knock-down by LNA-gapmers (relative RNA levels, qPCR). It counts as cell-based, human. The settings on record: for NEAT1 expression (knock-down): gapmer transfection, cancer cell lines; for NEAT1 isoforms inhibited: long (NEAT1_2) versus short isoform.
Excerpt: (§4) FIGS. 8A-8D. NEAT1 KD reduces the cell viability of human cancer cell lines. Gapmers 4 and 5 (gap 4 and 5) were used to knock-down the expression of all NEAT1 isoforms, and Gapmer 6 (gap 6) to specifically KD expression of the long isoform, in a series of cancer cell lines.
FIGS. 9A-9C. Knock-down of NEAT1 impairs HR and NHEJ DNA repair (FIG. 9A) but not Alt-NHEJ or SSA (FIG. 9B). […] SCR: scrambled control. Blue bars, all NEAT1 isoforms. Green bars, long NEAT1 isoform.
as §3
(§5) To further extend the anti-oncogenic effects observed in NEAT1 KO mice, NEAT1 was inhibited in different cancer cells using LNA-gapmers.
To confirm the hypothesis that NEAT1 inhibition interferes with DNA repair, U2OS cells were exposed to different concentrations of the DNA-damaging agent bleomycin. In NEAT1-inhibited cells, DNA damage (as measured by γH2AX intensity) is indeed increased (FIG. 9C, last three panels). Thus, DNA repair is severely impaired in NEAT1 KD cells.

The subject of another data set is MCF-7. Briefly: WST1-assay of cell growth / metabolic activity. To be noted: gapmer transfection. Format: cell-based, human.
Excerpt: as §4, §5

Data set [5] relates to cancer cell lines. Put plainly: Apoptosis, caspase 3/7 glow assay and FACS analysis. It counts as cell-based, human. To be noted: gapmer transfection.
Excerpt: as §4, §5
On the technique in general: In flow cytometry, cells or beads pass a laser one at a time.

The subject of data set [6] is cancer cell lines. Put plainly: Paraspeckles formation in cancer cell lines after gapmer transfection. Format: cell-based, human.
Excerpt: as §4, §5

Entries after “also recorded” stand apart in the source; their conditions may differ.

On to `CCN(CCO)CCCOc1ccc2c(Nc3cc(CC(=O)Nc4cccc(F)c4)[nH]n3)ncnc2c1` [AZD, AZD1152-HQPA], for which the NEAT1 induction entry with NEAT1 [1] (melanoma cells Mel 501 undergoing senescence) is on record as “induced”.
`COc1cccc2c1C(=O)c1c(O)c3c(c(O)c1C2=O)C[C@@](O)(C(=O)CO)C[C@@H]3O[C@H]1C[C@H](N)[C@H](O)[C@H](C)O1` [Doxorubicin]: the NEAT1 induction entry is listed as “not significantly” with NEAT1 [1] (higher dose (5 μM)) and “induced” with NEAT1 [1] (low dose).
Regarding `COc1ccc(C2=N[C@@H](c3ccc(Cl)cc3)[C@@H](c3ccc(Cl)cc3)N2C(=O)N2CCNC(=O)C2)c(OC(C)C)c1` [Nutlin3a], in the data set with NEAT1 [2] (MCF-7 cells, 24 hours), the “transcription of NEAT1 (RNA-seq)” value was “induces transcription of NEAT1”. The “expression of NEAT1” value is recorded as “induces expression of NEAT1” in the data set with NEAT1 [2] (U2OS, A459, human ES cells, BJ) and “induces expression of NEAT1” with NEAT1 [3]. Moreover, the NEAT1 induction result in the data set on NEAT1 [2] (colorectal cancer cell line HCT116) is given as “NEAT1 induction in response to Nutlin can be seen”; with NEAT1 [2] (isogenic p53 KO HCT116 cell line), “not in an isogenic p53 KO HCT116 cell line”. Besides, the paraspeckles formation entry in the data set with MCF-7 cells (MCF-7 cells, Nutlin alone) is given as “induces paraspeckles formation”. In addition, in the data set on NEAT1 promoter, the “recruitment of p53 to the NEAT1 promoter (p53-ChIP peaks)” value was “p53 is directly recruited to the NEAT1 promoter”.
For `C=C(C)[C@H]1Cc2c(ccc3c2O[C@@H]2COc4cc(OC)c(OC)cc4[C@@H]2C3=O)O1` [rotenone], the NEAT1 induction result in the data set on NEAT1 [1] (BJ cells, oxidative stress) is listed as “induced”.
Regarding “NEAT1-Gapmer4: LNA-gapmer, SEQ ID NO: 2, GACGTAACAGAATT; inhibits both long and short isoform of NEAT1 (LNA gapmer, LNA positions and linkages not given here)”, the formation of paraspeckles result in the data set with BJ is recorded as “decrease the formation of paraspeckles”. In addition, in the data set with NEAT1 [4] (listed as gap 4), the “NEAT1 expression (knock-down)” value was “efficiently knockdown NEAT1; also recorded: robust decrease in NEAT1 expression”. In addition, the NEAT1 isoforms inhibited result with NEAT1 [4] is “inhibit both the long and short isoform of NEAT1”. The Nutlin-induced paraspeckles formation entry in the data set with MCF-7 cells is listed as “dramatically attenuated”. The “MCF-7 growth (WST1-assay)” value in the data set with MCF-7 is “decrease MCF-7 growth significantly”. In addition, the “apoptosis (caspase 3/7 glow assay, FACS analysis)” value in the data set on cancer cell lines [5] is listed as “induction of apoptosis”. Further, the paraspeckles formation result with cancer cell lines [6] is “robust decrease”.
With “NEAT1-Gapmer5: LNA-gapmer, SEQ ID NO: 3, TAAGCACTTTGGAAAG; inhibits both long and short isoform of NEAT1 (LNA gapmer, LNA positions and linkages not given here)”, the “NEAT1 expression (knock-down)” value in the data set with NEAT1 [4] (listed as gap 5) is “efficiently knockdown NEAT1; also recorded: robust decrease in NEAT1 expression”. In the data set with NEAT1 [4], the NEAT1 isoforms inhibited result was “inhibit both the long and short isoform of NEAT1”. In addition, in the data set on MCF-7, the “MCF-7 growth (WST1-assay)” value is “decrease MCF-7 growth significantly”. The “apoptosis (caspase 3/7 glow assay, FACS analysis)” value with cancer cell lines [5] was “induction of apoptosis”. In the data set with cancer cell lines [6], the paraspeckles formation result is “robust decrease”.
Regarding “NEAT1-Gapmer6: LNA-gapmer, SEQ ID NO: 4, CTCACACGTCCATCT; specific for the long isoform of NEAT1 (LNA gapmer, LNA positions and linkages not given here)”, the formation of paraspeckles result in the data set with BJ is given as “decrease the formation of paraspeckles”. In the data set with NEAT1 [4], the “NEAT1 expression (knock-down)” value is “efficiently knockdown NEAT1” and the NEAT1 isoforms inhibited result is reported as “specific for the long isoform”. In addition, the KD efficiency entry in the data set with NEAT1 [4] (long transcript NEAT1_2, U2OS cells) is “about 50%”. Moreover, the Nutlin-induced paraspeckles formation entry in the data set on MCF-7 cells is on record as “dramatically attenuated”. In addition, the “MCF-7 growth (WST1-assay)” value in the data set with MCF-7 is reported as “decrease MCF-7 growth significantly”.
